Common to all, as to assay: biochemical
The target of assay [1] is T1, recombinant wildtype and mutated PPO (Amaranthus PPO2: PPX2L_WC SEQ ID NO 2, PPX2L_AC SEQ ID NO 4, dG210 SEQ ID NO 6 & 8) (Amaranthus tuberculatus, UniProt Q0NZW9, D133A/F420L/R128F).
T1 sequence (Q0NZW9 1-534 R128F/D133A/F420L): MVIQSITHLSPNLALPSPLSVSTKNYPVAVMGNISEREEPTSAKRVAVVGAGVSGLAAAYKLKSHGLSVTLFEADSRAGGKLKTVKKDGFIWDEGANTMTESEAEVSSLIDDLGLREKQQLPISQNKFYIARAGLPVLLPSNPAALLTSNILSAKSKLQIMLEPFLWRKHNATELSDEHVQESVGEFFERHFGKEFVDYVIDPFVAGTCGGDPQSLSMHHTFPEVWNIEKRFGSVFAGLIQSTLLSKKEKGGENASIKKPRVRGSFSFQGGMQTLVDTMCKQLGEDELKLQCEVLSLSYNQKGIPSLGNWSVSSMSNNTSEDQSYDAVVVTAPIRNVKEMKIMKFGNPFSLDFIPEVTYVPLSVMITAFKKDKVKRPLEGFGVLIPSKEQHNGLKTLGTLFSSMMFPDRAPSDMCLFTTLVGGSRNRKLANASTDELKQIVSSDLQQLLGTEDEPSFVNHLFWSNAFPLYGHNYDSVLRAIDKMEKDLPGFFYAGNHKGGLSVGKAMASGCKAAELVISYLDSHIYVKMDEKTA
Conditions: IC50 (M).

Assay [2] addresses T2, recombinant wildtype and mutated PPO (Amaranthus PPO2: PPX2L_WC SEQ ID NO 2, PPX2L_AC SEQ ID NO 4, dG210 SEQ ID NO 6 & 8) (Amaranthus tuberculatus, UniProt Q0NZW9, D133A/F420M/R128I).
T2 sequence (Q0NZW9 1-534 R128I/D133A/F420M): T1 sequence (Q0NZW9 1-534 R128F/D133A/F420L) with F128I, L420M
The note with it: IC50 (M).

In assay [3] the target is T3, recombinant wildtype and mutated PPO (Amaranthus PPO2: PPX2L_WC SEQ ID NO 2, PPX2L_AC SEQ ID NO 4, dG210 SEQ ID NO 6 & 8) (Amaranthus tuberculatus, UniProt Q0NZW9, D133A/F420M/R128F).
T3 sequence (Q0NZW9 1-534 R128F/D133A/F420M): T1 sequence (Q0NZW9 1-534 R128F/D133A/F420L) with L420M
The note with it: IC50 (M).

Assay [4] concerns the target T4, recombinant wildtype and mutated PPO (Amaranthus PPO2: PPX2L_WC SEQ ID NO 2, PPX2L_AC SEQ ID NO 4, dG210 SEQ ID NO 6 & 8) (Amaranthus tuberculatus, UniProt Q0NZW9, D133A/F420I/R128I).
T4 sequence (Q0NZW9 1-534 R128I/D133A/F420I): T1 sequence (Q0NZW9 1-534 R128F/D133A/F420L) with F128I, L420I
Conditions: IC50 (M).

Assay [5] concerns the target recombinant wildtype and mutated PPO (Amaranthus PPO2: PPX2L_WC SEQ ID NO 2, PPX2L_AC SEQ ID NO 4, dG210 SEQ ID NO 6 & 8) (Amaranthus tuberculatus, UniProt Q0NZW9, D133A/F420L/R128H). The note with it: IC50 (M).
Assay [6] has as its target recombinant wildtype and mutated PPO (Amaranthus PPO2: PPX2L_WC SEQ ID NO 2, PPX2L_AC SEQ ID NO 4, dG210 SEQ ID NO 6 & 8) (Amaranthus tuberculatus, UniProt Q0NZW9, R128A/F420V, form not given).
Assay [7] relates to recombinant wildtype and mutated PPO (Amaranthus PPO2: PPX2L_WC SEQ ID NO 2, PPX2L_AC SEQ ID NO 4, dG210 SEQ ID NO 6 & 8). Details: species or system Amaranthus tuberculatus.

Positions count from the first letter of the chain named. Values joined by “and” are separate entries in the source; they are usually repeats but may differ in a detail not shown here. Equal entries are not always repeated.

recombinant wildtype and mutated PPO (Amaranthus PPO2: PPX2L_WC SEQ ID NO 2, PPX2L_AC SEQ ID NO 4, dG210 SEQ ID NO 6 & 8) (Amaranthus tuberculatus, UniProt Q0NZW9, D133A/F420L/R128H), sequence (Q0NZW9 1-534 R128H/D133A/F420L): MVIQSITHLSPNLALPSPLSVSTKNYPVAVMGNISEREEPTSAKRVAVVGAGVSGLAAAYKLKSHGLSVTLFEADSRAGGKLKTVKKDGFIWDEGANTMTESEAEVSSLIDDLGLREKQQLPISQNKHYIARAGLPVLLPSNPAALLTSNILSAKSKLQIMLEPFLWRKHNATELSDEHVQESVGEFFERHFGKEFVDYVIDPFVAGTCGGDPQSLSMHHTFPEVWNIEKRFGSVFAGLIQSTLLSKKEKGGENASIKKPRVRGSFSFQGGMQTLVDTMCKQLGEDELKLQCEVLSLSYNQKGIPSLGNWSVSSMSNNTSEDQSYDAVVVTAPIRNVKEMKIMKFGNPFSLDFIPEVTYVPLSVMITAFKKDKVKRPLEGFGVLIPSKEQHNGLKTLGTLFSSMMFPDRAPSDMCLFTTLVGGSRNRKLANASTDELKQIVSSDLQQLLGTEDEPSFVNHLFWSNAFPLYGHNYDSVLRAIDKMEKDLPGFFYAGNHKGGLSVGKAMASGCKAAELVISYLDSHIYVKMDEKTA
recombinant wildtype and mutated PPO (Amaranthus PPO2: PPX2L_WC SEQ ID NO 2, PPX2L_AC SEQ ID NO 4, dG210 SEQ ID NO 6 & 8) (Amaranthus tuberculatus, UniProt Q0NZW9, R128A/F420V, form not given), sequence (Q0NZW9 1-534 R128A/F420V, form open): as the sequence (Q0NZW9 1-534 R128H/D133A/F420L) above, with H128A, A133D, L420V counted along it

What is called IC50 is the concentration that gives 50% inhibition. Turning to `C#CCN1C(=O)C(F)(F)Oc2cc(F)c(-n3c(=O)n(C)c(=S)n(C)c3=O)cc21`, the IC50 in assay [1] was found to be 1.01e-06 M; in assay [2], 6.1e-08 M; in assay [3], 1.21e-07 M; in assay [4], 1.38e-07 M; in assay [5] it was 7.98e-08 M.

Take `C#CCN1C(=O)C(F)(F)Oc2cc(F)c(-n3c(=O)cc(C(F)(F)F)n(C)c3=O)cc21`: the IC50 in assay [6] stood at 6.33 nM.

Take `C#CCN1C(=O)C(F)(F)Oc2cc(F)c(N3C(=O)C4=C(CCCC4)C3=O)cc21`: the IC50 in assay [6] stood at 274 nM.

For the molecule `COC(Oc1ccccc1Oc1cc(-n2c(=O)cc(C(F)(F)F)n(C)c2=O)c(F)cc1Cl)C(=O)OC1CCCCC1` (stereo not shown), the IC50 in assay [1] was determined as 1.18e-06 M; in assay [2], 1.06e-08 M; in assay [3], 6.26e-08 M; in assay [4], 1.82e-06 M; in assay [5], 6.93e-07 M.

As to `COC(=O)C(OC)Oc1ccccc1Oc1cc(-n2c(=O)cc(C(F)(F)F)n(C)c2=O)c(F)cc1Cl` (stereo not shown), the concentration for half-maximal inhibition (IC50) in assay [1] amounted to 4.84e-08 M; in assay [2], 1.15e-08 M; in assay [3] it was 2.81e-09 M; in assay [4] it was 2.27e-08 M; in assay [5], 4.47e-08 M.

Take `O=C(O)c1cc(Oc2ccc(C(F)(F)F)cc2Cl)ccc1[N+](=O)[O-]` [ACIFLUORFEN]: the “inhibition (%) at 1 × 10−5M” value in assay [7] was 39% and 33% and 27%.

For `C#CCN1C(=O)COc2cc(F)c(N3C(=O)C4=C(CCCC4)C3=O)cc21` [Flumioxazin, flumioxazin], in assay [7], the “inhibition (%) at 1 × 10−5M” value was 41% and 48% and 30%.
